In series [1] the target is T1, Mu-type opioid receptor (Homo sapiens, UniProt P35372). Description: Displacement of [3H]-DAMGO from recombinant human MOR expressed in CHO cell membranes measured after 2 hrs by microbeta scintillation counting method. Details: species or system Membrane.
In series [2] the target is T2, Delta-type opioid receptor (Homo sapiens, UniProt P41143). Description: Displacement of [3H]-DPDPE from recombinant human DOR expressed in CHO cell membranes measured after 2 hrs by microbeta scintillation counting method. Details: species or system Membrane. Background: Loss of bound radioactivity is the signal in a displacement assay; it reports binding, not function.

Series [3] deals with T3, Kappa-type opioid receptor (Homo sapiens, UniProt P41145). Description: Displacement of [3H]-U-69593 from recombinant human KOR expressed in CHO cell membranes measured after 2 hrs by microbeta scintillation counting method. Details: species or system Membrane.
Series [4] is filed under the species Homo sapiens. Description: Selectivity ratio of Ki for displacement of [3H]-DAMGO from recombinant human MOR expressed in CHO cell membranes to Ki for displacement of [3H]-U-69593 from recombinant human KOR expressed in CHO cell membranes.
For series [5], the species on record is Homo sapiens. Description: Selectivity ratio of Ki for displacement of [3H]-DPDPE from recombinant human DOR expressed in CHO cell membranes to Ki for displacement of [3H]-U-69593 from recombinant human KOR expressed in CHO cell membranes.
The target in series [6] is T1, Mu-type opioid receptor. Description: Agonist activity at human mu opioid receptor expressed in CHO cell membranes assessed as stimulation of [35S]GTPgammaS binding incubated for 2 hrs by scintillation counting method. Details: species or system Membrane. On the technique in general: Binding of GTPγS marks nucleotide exchange on a G protein.
Another series addresses mu opioid receptor (MOR) (Homo sapiens, UniProt P35372). Description: Agonist activity at human mu opioid receptor expressed in CHO cell membranes assessed as stimulation of [35S]GTPgammaS binding incubated for 2 hrs by scintillation counting method relative to DAMGO. The conditions noted are these: CHO cell membranes expressing human mu opioid receptor, probe [35S]GTPgammaS. Details: species or system Membrane.

Series [7] concerns the target T2, Delta-type opioid receptor. Description: Agonist activity at human delta opioid receptor expressed in CHO cell membranes assessed as stimulation of [35S]GTPgammaS binding incubated for 2 hrs by scintillation counting method. The class given is functional, Membrane.
Series [8] concerns the target T2, Delta-type opioid receptor. Description: Agonist activity at human delta opioid receptor expressed in CHO cell membranes assessed as stimulation of [35S]GTPgammaS binding incubated for 2 hrs by scintillation counting method relative to SNC80. The class given is functional. The conditions noted are these: Membrane.
The target in series [9] is T3, Kappa-type opioid receptor. Description: Agonist activity at human kappa opioid receptor expressed in CHO cell membranes assessed as stimulation of [35S]GTPgammaS binding incubated for 2 hrs by scintillation counting method. It counts as functional, Membrane.
In series [10] the target is T3, Kappa-type opioid receptor. Description: Agonist activity at human kappa opioid receptor expressed in CHO cell membranes assessed as stimulation of [35S]GTPgammaS binding incubated for 2 hrs by scintillation counting method relative to U-69593. It counts as functional. The settings on record: Membrane.
The target in series [11] is T1, Mu-type opioid receptor. Description: Agonist activity at human mu opioid receptor expressed in CHO cell membranes assessed as stimulation of [35S]GTPgammaS binding at 10 uM incubated for 2 hrs by scintillation counting method relative to DAMGO. Details: species or system Membrane.

SMILES strings stand for the structures.

This note sets out measurements from ChEMBL document CHEMBL5143548, “Morphinan derivatives with an oxabicyclo[3.2.1]octane structure as dual agonists toward δ and κ opioid receptors” (Bioorg Med Chem, 2022).

As usually defined, the Ki is a measure of affinity in units of concentration, obtained from inhibition or displacement. As usually defined, the EC50 is the midpoint of the concentration-response curve. One may read the Emax as the maximal effect, on the per cent scale that the assay sets.

T3 sequence (P41145 whole entry): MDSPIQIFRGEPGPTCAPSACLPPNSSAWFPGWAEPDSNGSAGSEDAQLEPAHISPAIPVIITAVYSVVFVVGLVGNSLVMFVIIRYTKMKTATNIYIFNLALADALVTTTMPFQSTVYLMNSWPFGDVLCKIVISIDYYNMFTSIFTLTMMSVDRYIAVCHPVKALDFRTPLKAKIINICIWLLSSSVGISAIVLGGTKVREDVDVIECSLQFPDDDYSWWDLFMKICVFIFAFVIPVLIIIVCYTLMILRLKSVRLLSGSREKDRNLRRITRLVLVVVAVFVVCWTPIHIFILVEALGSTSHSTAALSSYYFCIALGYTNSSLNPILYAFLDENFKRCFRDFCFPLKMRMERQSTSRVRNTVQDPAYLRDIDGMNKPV
T2 sequence (P41143 whole entry): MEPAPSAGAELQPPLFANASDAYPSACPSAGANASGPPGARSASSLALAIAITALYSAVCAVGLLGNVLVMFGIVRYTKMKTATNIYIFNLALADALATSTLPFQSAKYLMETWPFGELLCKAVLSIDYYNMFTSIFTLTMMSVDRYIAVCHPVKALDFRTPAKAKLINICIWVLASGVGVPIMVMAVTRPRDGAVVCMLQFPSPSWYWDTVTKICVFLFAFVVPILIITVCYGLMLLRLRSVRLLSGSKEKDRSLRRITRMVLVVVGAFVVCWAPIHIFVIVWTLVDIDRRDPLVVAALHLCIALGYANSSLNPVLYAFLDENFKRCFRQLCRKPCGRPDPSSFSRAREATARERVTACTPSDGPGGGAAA
Sequence of mu opioid receptor (MOR) (P35372 whole entry): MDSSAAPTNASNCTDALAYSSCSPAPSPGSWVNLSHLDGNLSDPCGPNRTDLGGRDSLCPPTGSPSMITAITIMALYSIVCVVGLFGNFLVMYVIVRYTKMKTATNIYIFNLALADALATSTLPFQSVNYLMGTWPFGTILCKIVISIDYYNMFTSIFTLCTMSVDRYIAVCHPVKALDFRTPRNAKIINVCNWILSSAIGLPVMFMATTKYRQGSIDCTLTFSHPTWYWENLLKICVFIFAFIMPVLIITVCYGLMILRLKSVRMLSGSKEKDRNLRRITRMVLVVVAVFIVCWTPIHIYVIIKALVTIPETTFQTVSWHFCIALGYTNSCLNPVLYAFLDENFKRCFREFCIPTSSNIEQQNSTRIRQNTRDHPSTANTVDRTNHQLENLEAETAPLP
T1 sequence (P35372 whole entry): as above

`CN(C(=O)CCc1ccccc1)[C@@H]1C[C@]23CCN(CC4CC4)[C@H](Cc4ccc(O)cc42)[C@]32CC[C@@H]1O2`: the Ki at Mu-type opioid receptor [1] was 1.46 nM; in [2], 20.5 nM; in series [3], 0.332 nM. Besides, the Ratio Ki in the series filed under Homo sapiens [4] was determined as 4.4; in the series filed under Homo sapiens [5], 61.7. In addition, the EC50 was found to be 5.61 nM on Mu-type opioid receptor [6], 21.4 nM in series [7] and 9.95 nM in [9]. In addition, the Emax at 2 h on mu opioid receptor (MOR) was 33.4%. In addition, the Emax in [8] (filed as agonist) is 85.2%; in series [10] (filed as partial agonist), 58.5%.
In the case of `O=C(N[C@H]1C[C@]23CCN(CC4CC4)[C@H](Cc4ccc(O)cc42)[C@]32CC[C@@H]1O2)c1ccccc1`, the Ki on Mu-type opioid receptor [1] turned out to be 0.564 nM; in series [2], 5.68 nM; in series [3] it was 10.6 nM. Moreover, the Ratio Ki in the series filed under Homo sapiens [4] is 0.05; in the series listed under Homo sapiens [5], 0.54. Besides, the EC50 is 51.9 nM in series [7] and 32.4 nM in [9]. The Emax in series [8] (filed as agonist) was found to be 97.4%; in [10], 23.7%. On Mu-type opioid receptor [11], the Activity is 10.2%.
As for `CN(C(=O)c1ccccc1)[C@@H]1C[C@]23CCN(CC4CC4)[C@H](Cc4ccc(O)cc42)[C@]32CC[C@@H]1O2`, the Ki turned out to be 1.42 nM at Mu-type opioid receptor [1], 23.2 nM in [2] and 0.256 nM in [3]. For the same molecule, the Ratio Ki in the series filed under Homo sapiens [4] was 5.5; in the series filed under Homo sapiens [5], 90.6. Moreover, the EC50 on Mu-type opioid receptor [6] is 4.7 nM; in series [7] it was 0.171 nM; in series [9], 1.59 nM. The Emax at 2 h at mu opioid receptor (MOR) turned out to be 47.5%. Besides, the maximum response (Emax) in series [8] stood at 27.7%; in [10], 34.6%.
Consider `O=C(CCc1ccccc1)N[C@@H]1C[C@]23CCN(CC4CC4)[C@H](Cc4ccc(O)cc42)[C@]32CC[C@@H]1O2`, for which the Ki turned out to be 0.126 nM at Mu-type opioid receptor [1], 5.18 nM in series [2] and 0.197 nM in [3]. In addition, the results for the Ratio Ki in the series filed under Homo sapiens [4] and in the series filed under Homo sapiens [5] were 0.64 and 26.3, respectively. Also, the EC50 on Mu-type opioid receptor [6] is 12.7 nM; in [7], 112 nM; in series [9], 5.31 nM. Moreover, the Emax at 2 h at mu opioid receptor (MOR) came out at 10.2%. Besides, the Emax in series [8] (filed as agonist) was determined as 104%; in [10] (filed as partial agonist), 75.4%.
Take `CN(C(=O)Cc1ccccc1)[C@@H]1C[C@]23CCN(CC4CC4)[C@H](Cc4ccc(O)cc42)[C@]32CC[C@@H]1O2`: the Ki came to 1.74 nM at Mu-type opioid receptor [1], 19.5 nM in series [2] and 0.278 nM in series [3]. Besides, the Ratio Ki in the series listed under Homo sapiens [4] was found to be 6.3; in the series filed under Homo sapiens [5] it was 70.1. Further, the concentration giving a half-maximal response (EC50) is 7.11 nM on Mu-type opioid receptor [6], 43.6 nM in [7] and 8.44 nM in series [9]. The Emax at 2 h at mu opioid receptor (MOR) worked out at 40.3%. The Emax came out at 39.7% in series [8] and 88.6% in series [10] (filed as partial agonist).
As to `O=C(N[C@@H]1C[C@]23CCN(CC4CC4)[C@H](Cc4ccc(O)cc42)[C@]32CC[C@@H]1O2)c1ccccc1`, the Ki was found to be 0.165 nM at Mu-type opioid receptor [1], 1.67 nM in series [2] and 0.14 nM in [3]. The Ratio Ki was 1.2 in the series listed under Homo sapiens [4] and 11.9 in the series listed under Homo sapiens [5]. For the same molecule, the EC50 on Mu-type opioid receptor [6] stood at 2.72 nM; in [7], 2.86 nM; in series [9], 1.82 nM. Besides, at mu opioid receptor (MOR), the Emax at 2 h turned out to be 47.2%. For the same molecule, the values for the Emax in [8] (filed as agonist) and in series [10] (filed as partial agonist) were 106% and 87.7%, respectively.
Turning to `O=C(Cc1ccccc1)N[C@H]1C[C@]23CCN(CC4CC4)[C@H](Cc4ccc(O)cc42)[C@]32CC[C@@H]1O2`, the results for the inhibition constant (Ki) (at Mu-type opioid receptor [1]; in series [2]; in series [3]) were 3.81 nM, 4.98 nM and 1.71 nM, respectively. For the same molecule, the Ratio Ki in the series filed under Homo sapiens [4] was found to be 2.2; in the series filed under Homo sapiens [5], 2.9. Further, the EC50 was found to be 5.37 nM on Mu-type opioid receptor [6], 3.83 nM in series [7] and 13.4 nM in series [9]. Further, the Emax at 2 h on mu opioid receptor (MOR) amounted to 8.7%. Besides, the maximal effect (Emax) in series [8] (filed as agonist) was determined as 101%; in series [10] it was 35.8%.
Take `O=C(CCc1ccccc1)N[C@H]1C[C@]23CCN(CC4CC4)[C@H](Cc4ccc(O)cc42)[C@]32CC[C@@H]1O2`: the Ki at Mu-type opioid receptor [1] came to 1.08 nM; in [2], 5.14 nM; in series [3], 2.36 nM. Moreover, the Ratio Ki came to 0.46 in the series filed under Homo sapiens [4] and 2.2 in the series listed under Homo sapiens [5]. Besides, the figures for the EC50 (on Mu-type opioid receptor [6]; in [7]; in series [9]) were 9.35 nM, 54.7 nM and 6.32 nM, respectively. Moreover, at mu opioid receptor (MOR), the Emax at 2 h is 11.4%. Besides, the Emax is 111% in series [8] (filed as agonist) and 50.3% in [10] (filed as partial agonist).
`O=C(Cc1ccccc1)N[C@@H]1C[C@]23CCN(CC4CC4)[C@H](Cc4ccc(O)cc42)[C@]32CC[C@@H]1O2`: the Ki on Mu-type opioid receptor [1] was 0.267 nM; in series [2], 0.522 nM; in [3] it was 0.193 nM. The Ratio Ki amounted to 1.4 in the series filed under Homo sapiens [4] and 2.7 in the series filed under Homo sapiens [5]. Further, the EC50 at Mu-type opioid receptor [6] turned out to be 9.43 nM; in series [7], 5.96 nM; in [9] it was 3.11 nM. In addition, the Emax at 2 h at mu opioid receptor (MOR) worked out at 28.2%. The Emax in series [8] (filed as agonist) came out at 85.3%; in series [10] (filed as partial agonist), 68.4%.
